Entries after “also recorded” stand apart in the source; their conditions may differ. Read-outs that look alike come from different tables or passages of the source.
Tests used:
[1] = system: renal proximal tubule epithelial cells (RPTEC); experiment: Toxicity on normal cells (MTS), RPTEC; type: cell-based, human; settings: Homo sapiens, RPTEC, normal (kidney) cells; read-out: IC50 (μM) RPTEC (normal cells)
Experimental: (§1) The different aminosteroids were dissolved in methanol (50 mM).

[2] = in vivo; settings: female, Balb/c, mouse
Experimental: The plasmatic concentration (AUC) of RM-581-102 was determined following four different methods of administration (s.c., p.o., i.v. and i.p.) at the following concentrations: 60 mg/kg of body weight in 0.1 mL for s.c. and p.o. administration; 2 mg/kg of body weight in 0.02 mL for i.v. caudal administration; and 20 mg/kg of body weight in 0.1 mL for i.p. administration. For the s.c., p.o. and i.p. administrations, RM-581-102 was first dissolved in DMSO followed by the addition of propylene glycol to obtain a final concentration of DMSO of 8%. Regarding the i.v. administration, RM-581-102 was first dissolved in DMSO (8%) followed by the addition of DMA (38%) and propylene glycol (60%). For the i.v. administration, the mice were fasted over a period of 8 h before injection of RM-581-102.
Animals: Six to seven week-old female Balb/c mice weighing approximately 18 g were obtained from Charles-River, Inc (St-Constant, Qc., Canada). The animals were acclimatized to environmental conditions (temperature: 22±3° C.; humidity: 50±20%; 12-h light/12-h dark cycles, lights on at 07:15 h) for at least 5 days before starting the experiment. The animals were housed three per cage and were allowed free access to water and a certified commercial rodent food (Rodent diet #T.2018.15, Harlan Teklad, Madison, Wis., U.S.A.). The experiments with the animals were conducted in an animal facility approved by the Canadian Council on Animal Care (CCAC) and the Association for Assessment and Accreditation of Laboratory Animal Care. The study was performed in accordance with the CCAC Guide for Care and Use of Experimental Animals. Institutional approval was obtained.
Assay: The pharmacokinetic study was carried out following four different methods of administration (s.c., p.o., i.v. and i.p.) of RM-581-102 at the following concentrations: 60 mg/kg of body weight in 0.1 mL for s.c. and p.o. administration; 2 mg/kg of body weight in 0.02 mL for i.v. caudal administration; and 20 mg/kg of body weight in 0.1 mL for i.p. administration. For the s.c., p.o. and i.p. administrations, RM-581-102 was first dissolved in DMSO followed by the addition of propylene glycol to obtain a final concentration of DMSO of 8%. Regarding the i.v. administration, RM-581-102 was first dissolved in DMSO (8%) followed by the addition of DMA (38%) and propylene glycol (60%). For the i.v. administration, the mice were fasted over a period of 8 h before injection of RM-581-102. Blood samples for the determination of RM-581-102 plasma concentrations were collected by cardiac puncture at target intervals ranging from 5 minutes to 24 hours post-dose administration from 3 mice/time point. The blood samples were collected in Microvette® potassium-EDTA (ethylenediamine tetra-acetic acid)-coated tubes (Sarstedt AG & Co, Germany) and centrifuged at 3200 rpm for 10 minutes at 4° C. The plasma was subsequently collected and stored at −80° C. until analysis by liquid chromatography/mass spectrometry/mass spectrometry (LC/MS/MS).
The plasma concentrations of RM-581-102 was determined by LC/MS/MS analysis using a procedure developed at CHUQ (CHUL)—Research Center (Bioanalytical Service). For extraction from the plasma, a plasma sample (100 μL) was transferred to individual tubes and 600 μL of ammonium acetate (1 mM) was added. A methanolic solution (50 μL) containing a deuterated steroid internal standard was then added to each tube. Samples were then transferred on Strata-X SPE columns (Phenomenex, Torrance, Calif., USA) and each column was washed with water and methanol:water (10:90, v/v). RM-581-102 was then eluted with 5 mL of methanol containing 1 mM ammonium acetate.

[3] = human, microsomes, 1 h, 10 μM, pH 7.4
Experimental: (§2) Assays were performed at 37° C. for 1 h, with or without 10 mM NADPH in the presence of 40 μg of human liver microsome from Corning (Melrose, Mass., USA) and 10 μM of aminosteroid substrate in a final 100 μL volume of 50 mM Tris buffer (pH 7.4) supplemented with 10 mM MgCl2. Assays were ended by adding 100 μL of MeOH followed by centrifugation at 13,000 g for 10 min to obtain a pellet of proteins. The supernatant of 2 assays was pooled and submitted to HPLC-MS analysis (Shimadzu LCMS-2020 APCI, Alltima HP C18 (250 mm×4.6 mm, 5 μm) column, MeOH:H2O gradient). Remaining substrate (expressed in %) was calculated by dividing the area under the curve of the substrate for the assays without NADPH by the area under the curve of the substrate for the assays with NADPH and multiplied by 100. Values represent the average of 2 independent experiments.

[4] = system: human MCF-7 breast tumors; experiment: MCF-7 tumor growth (xenograft) in ovariectomized nude mice; type: in vivo; settings: 60 mg/kg s.c., 28-day treatment
Excerpt: FIG. 2 is an illustration of the effect of aminosteroid RM-581-102 (compound 6) on MCF-7 tumor growth. A) Effect of a 28-day treatment on 17β-estradiol (E2)-induced growth of human MCF-7 breast tumors in ovariectomized (OVX) nude mice in accordance with an embodiment of the present disclosure. Tumor sizes are expressed as the percentage of initial tumor area (day 1 of treatment=100%). Data are expressed as the mean±SEM (n=10-12 tumors and 6-7 mice per group). […] B) Initial and final body weight of the mice.

[5] = system: MCF-10A cells (model for normal breast cells); experiment: Cell proliferation assay (MTS), MCF-10A; type: cell-based
Experimental: A selectivity index (SI) for RM-581-102 was calculated as the ratio of its IC50 value in MCF-10A cells, a cell line used as a model for normal breast cells, versus its IC50 value in MCF-7 breast cancer cells (Table 4). […] It would thus appear that the replacement of the 5α-androstane-3α,17β-diol backbone by that of mestranol, is beneficial for the selectivity of these aminosteroid derivatives.
as §1

[6] = system: OVCAR-3 cells (ovarian cancer); experiment: Cell proliferation assay (MTS), OVCAR-3; type: cell-based; settings: Homo sapiens, OVCAR-3, 72 h, 3 days treatment, MTS; read-out: IC50 (μM) Ovarian cancer OVCAR-3
Experimental: as §1

[7] = system: PC-3 (prostate cancer) cells; experiment: Cell proliferation assay (MTS), PC-3; type: cell-based; settings: 72 h, read-out: IC50 (μM) Prostate cancer PC-3
Experimental: as §1

[8] = system: Human pancreas cancer cells (PANC-1); experiment: Cell proliferation assay (MTS), PANC-1; type: cell-based; settings: Homo sapiens, PANC-1, 72 h, 3 days treatment, MTS; read-out: IC50 (μM) Pancreatic cancer PANC-1
Experimental: as §1

[9] = system: LNCaP (prostate cancer) cells; experiment: Cell proliferation assay (MTS), LNCaP; type: cell-based; settings: Homo sapiens, 72 h, read-out: IC50 (μM) Prostate cancer LNCaP
Experimental: as §1

[10] = system: T-47D breast cancer cell line; experiment: Cell proliferation assay (MTS), T-47D; type: cell-based; settings: 72 h; for IC50: Homo sapiens, T47D, 3 days treatment, MTS
Experimental: as §1

[11] = system: MCF-7 breast cancer cells; experiment: Cell proliferation assay (MTS), MCF-7; type: cell-based, human; settings: 3 days treatment
Experimental: as §1

[12] = system: LAPC-4 (prostate cancer) cells; experiment: Cell proliferation assay (MTS), LAPC-4; type: cell-based; settings: Homo sapiens, LAPC4, 72 h, 3 days treatment, MTS; read-out: IC50 (μM) Prostate cancer LAPC-4
Experimental: as §1

[13] = system: PANC-1, BxPC-3, Hs766, OVCAR-3, Caov3, SKOV3, MCF-7, T-47D and LAPC-4 cell lines; experiment: Cytotoxic activity screening at 5 and 1 μM on cancer cell lines; settings: independently of the cancer cell line tested, result in words
Experimental: The cell proliferation assay was performed using 3-(4,5-dimethylthiazol-2-yl)-5-(3-carboxymethoxyphenyl)2-(4-sulfophenyl)-2H-tetrazolium (MTS) (Cell Titer 96 Aqueous, Promega, Nepean, ON, Canada) as previously described [3, 4, 5]. Briefly, cells were plated in triplicate in 96-well plates (1×10^4 cells/well) in appropriate culture medium (total of 90 μL). Before each treatment, the cells were incubated at 37° C. in a 5% CO2 humidified atmosphere for 24 h. The different aminosteroids were dissolved in methanol (50 mM). The stock solutions were diluted at multiple concentrations with culture media in order to obtain the desired final concentration followed by the addition of 10 μL to each well, and the mixture incubated for 3 days. Following treatment, MTS (10 μL) was added to each well and the mixture was incubated for 4 h.

[14] = Metabolic stability assay, human liver microsomes; settings: 10 μM, 1 h, 40 μg human liver microsomes; result in words
Experimental: as §2

[15] = Water solubility; type: physicochemical; settings: relative to RM-581-OH

C#C[C@]1(O)CC[C@H]2[C@@H]3CCc4cc(OC)c(N5CCN(C(=O)[C@@H]6CCCN6C(=O)c6ccc7ccccc7n6)CC5)cc4[C@H]3CC[C@@]21C [RM-581, {4-[17α-Ethynyl-17I-hydroxy-3-methoxyestra-1,3,5(10)-trien-2-yl]piperazin-1-yl}[(2S)-1-(quinolin-2-ylcarbonyl)pyrrolidin-2-yl]methanone]
IC50 [1]: > 50 µM | AUC(0-t) ([2]; ip, 20 mg/kg): 11400 ng·h/mL | concentration at 3 h ([2]; ip, 20 mg/kg): 5300 ng/mL | AUC(0-t) ([2]; iv, 2 mg/kg): 595 ng·h/mL | concentration at 3 h ([2]; iv, 2 mg/kg): 300 ng/mL | AUC(0-t) ([2]; po, 60 mg/kg): 5540 ng·h/mL | concentration at 3 h ([2]; po, 60 mg/kg): 550 ng/mL | AUC(0-t) ([2]; sc, 60 mg/kg): 7760 ng·h/mL | concentration at 3 h ([2]; sc, 60 mg/kg): 600 ng/mL | metabolic stability (% of remaining compound) [3]: significantly more stable toward phase-I hepatic metabolism than RM-133 | behavioral changes, signs of toxicity and weight loss ([4]; compared with control groups): no behavioral changes, signs of toxicity and weight loss | MCF-7 tumor growth (tumor size, % of initial tumor area) ([4]; 6 days per week, E2-stimulated OVX nude mice): complete blockade of tumor growth; also recorded: significant tumor regression from day 21 up to day 28 | IC50 ([5]; Homo sapiens, MCF-10A, model for normal breast cells): 16.8 µM | times more selective compared to RM-133 ([5]; in vitro MCF-7 and MCF-10A cell models): 5.1 times | Selectivity Index ([5]; ratio of IC50 in MCF-10A cells versus IC50 in MCF-7 cells): 15.3 | IC50 [6]: 5 ± 0.5 µM | IC50 ([7]; 3 days treatment, MTS): 1.6 ± 0.3 µM | IC50 [8]: 3.9 ± 0.9 µM | IC50 ([9]; 3 days treatment, MTS): 1.2 ± 0.6 µM | IC50 [10]: 0.5 ± 0.05 µM | cytotoxic activity compared with known antineoplastic agents ([10]; T-47D, 1.0 and 5 μM, vs paclitaxel, gemcitabine, fluorouacil, oxaliplatin, irinotecan): stronger cytotoxic activities at both concentrations | IC50 [11]: 2.6 ± 0.3 µM | IC50 ([11]; listed as RM-581-102): 1.1 ± 0.1 µM | IC50 [12]: 0.6 ± 0.3 µM

C#C[C@@]1(O)CC[C@H]2[C@@H]3CCc4cc(OP(=O)(O)O)c(N5CCN(C(=O)[C@@H]6CCCN6C(=O)c6ccc7ccccc7n6)CC5)cc4[C@H]3CC[C@@]21C [Compound 5, (17β)-17-ethynyl-17-hydroxy-2-{4-[1-(quinolin-2-ylcarbonyl)-L-prolyl]piperazin-1-yl}estra-1,3,5(10)-trien-3-yl dihydrogen phosphate]
cytotoxic activity in screening (cell survival) [13]: without adversely affecting the antiproliferative properties; also recorded: only slight differences in their respective levels of activity | metabolic stability (% of remaining compound) [14]: stability similar to its phenolic counterpart | water solubility [15]: significant enhancement of water solubility | IC50 [6]: 4.6 ± 0.7 µM | IC50 [7]: 1.3 ± 0.05 µM | IC50 [8]: 2.6 ± 0.1 µM | IC50 [9]: 0.6 ± 0.05 µM | IC50 [10]: 0.3 ± 0.05 µM | IC50 ([11]; Homo sapiens, MCF7, 72 h): 1.5 ± 0.3 µM | IC50 [12]: 0.3 ± 0.07 µM

Source: US11174282B2, “Aminosteroid derivatives and process for producing same” (UNIVERSITÉ LAVAL, priority 2016, dated 2021)
